Experimental findings from US20060193804A1, “Haircare use of cyclic amine derivatives” (L'OREAL, priority 2005, published 2006) are described below.

The test concerns human striated muscle cells innervated with explants of rat embryonic spinal ganglia and spinal cord. The experiment in a line: nerve/muscle coculture model: frequency of muscle fiber contractions. It counts as cell-based. Conditions: for inhibition at 10 µM: Homo sapiens, concentration of 10^−5 M, contractions counted over 30 seconds after incubation for 60 seconds, read-out: inhibition of the frequency of contraction of the muscle fibers. The protocol: Compounds 1 and 2 were tested at a given concentration, on a model of nerve/muscle coculture, which makes it possible to recreate a motor arc by innervating human striated muscle cells with explants of rat embryonic spinal ganglia and spinal cord.
This test is predictive of an inhibitory effect on muscle fiber contractions.
The protocol adopted is as follows:
Human myoblasts (primary culture of human muscle cells, M1b) were inoculated in 24-well plates. The culture medium is a mixture of ⅔ MEM (Invitrogen 21090-022), ⅓ M199 (Invitrogen 31153-026) and 5% FCS. At confluence, spinal cord explants from 13-day-old rat embryos are placed on the primary culture. The first contractions of the muscle fibers are observed after one week of coculture. After three weeks, these muscle fibers are striated and have mature differentiated neuromuscular junctions.
The products are tested in triplicate (3 fibers analysed) at two concentrations. For each culture well, a muscle fiber having regular contractions (>60 contractions per minute) is selected and the number of contractions is counted over 30 seconds. The test product is then added to the culture medium under a microscope without moving the microscope stage. After incubation for 60 seconds, the number of contractions is again counted over 30 seconds. The whole experiment is recorded using a digital camera. The videos are saved on an electronic medium.

In the case of `c1ccc(CCCC2CCN(CCCc3ccccc3)CC2)cc1` [Compound 2], the inhibition at 10 µM is about 55%.

In the case of `c1ccc(CCCCN2CCC(c3ccccc3)CC2)cc1` [Compound 1], the “dose-response effect on contraction of the muscle fibers” value is “induces a dose-response effect” and the inhibition at 10 µM was 50%.

For orientation: inhibition means the change of the read-out against control, counted positive when it falls.
